From the supplement of paper PMC10307832

Tests used:
Test in all cases: relative viability (nuclei count vs DMSO), 5 days (fraction); higher = more cells survive
Doramapimod + Pictilisib = compound: Cc1ccc(-n2nc(C(C)(C)C)cc2NC(=O)Nc2ccc(OCCN3CCOCC3)c3ccccc23)cc1 [Doramapimod] + CS(=O)(=O)N1CCN(Cc2cc3nc(-c4cccc5[nH]ncc45)nc(N4CCOCC4)c3s2)CC1 [Pictilisib] (partner 1 µM)
Summary of the method: (§1)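 Five library-drug doses in √10 steps were combined with a fixed anchor-drug dose, or a single drug was given alone, by pin tool to lung cancer cell lines in 1536-well plates the day after seeding. Nuclei were stained and counted after 5 days. Relative viability is the nuclei count in treated wells over that in vehicle wells, taken as the median of duplicate plates.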

RAF265 + Pemetrexed = compound: Cn1c(Nc2ccc(C(F)(F)F)cc2)nc2cc(Oc3ccnc(-c4ncc(C(F)(F)F)[nH]4)c3)ccc21 [RAF265] + Nc1nc2[nH]cc(CCc3ccc(C(=O)N[C@@H](CCC(=O)O)C(=O)O)cc3)c2c(=O)[nH]1 [Pemetrexed] (partner 0.2 µM)
Summary of the method: as §1

RAF265 + Palbociclib = compound: Cn1c(Nc2ccc(C(F)(F)F)cc2)nc2cc(Oc3ccnc(-c4ncc(C(F)(F)F)[nH]4)c3)ccc21 [RAF265] + CC(=O)c1c(C)c2cnc(Nc3ccc(N4CCNCC4)cn3)nc2n(C2CCCC2)c1=O [Palbociclib] (partner 0.5 µM)
Summary of the method: as §1

Doramapimod + Linsitinib = compound: Cc1ccc(-n2nc(C(C)(C)C)cc2NC(=O)Nc2ccc(OCCN3CCOCC3)c3ccccc23)cc1 [Doramapimod] + C[C@]1(O)C[C@@H](c2nc(-c3ccc4ccc(-c5ccccc5)nc4c3)c3c(N)nccn32)C1 [Linsitinib] (partner 1 µM)
Summary of the method: as §1

Cell Line | relative viability (Doramapimod + Pictilisib; first compound 0.02 µM) | relative viability (Doramapimod + Pictilisib; first compound 0.06325 µM) | relative viability (Doramapimod + Pictilisib; first compound 0.2 µM) | relative viability (Doramapimod + Pictilisib; first compound 0.6325 µM) | relative viability (Doramapimod + Pictilisib; first compound 2 µM) | relative viability (RAF265 + Pemetrexed; first compound 0.01 µM) | relative viability (RAF265 + Pemetrexed; first compound 0.03162 µM) | relative viability (RAF265 + Pemetrexed; first compound 0.1 µM) | relative viability (RAF265 + Pemetrexed; first compound 0.3162 µM) | relative viability (RAF265 + Pemetrexed; first compound 1 µM) | relative viability (RAF265 + Palbociclib; first compound 0.01 µM) | relative viability (RAF265 + Palbociclib; first compound 0.03162 µM) | relative viability (RAF265 + Palbociclib; first compound 0.1 µM) | relative viability (RAF265 + Palbociclib; first compound 0.3162 µM) | relative viability (RAF265 + Palbociclib; first compound 1 µM) | relative viability (Doramapimod + Linsitinib; first compound 0.02 µM) | relative viability (Doramapimod + Linsitinib; first compound 0.06325 µM) | relative viability (Doramapimod + Linsitinib; first compound 0.2 µM) | relative viability (Doramapimod + Linsitinib; first compound 0.6325 µM) | relative viability (Doramapimod + Linsitinib; first compound 2 µM)
BEN | 0.578 | 0.501 | 0.524 | 0.559 | 0.531 | 0.795 | 0.835 | 0.99 | 0.798 | 0.692 | 0.459 | 0.477 | 0.509 | 0.468 | 0.441 | 0.834 | 0.893 | 0.906 | 0.769 | 0.854
NCI-H3122 | 0.578 | 0.548 | 0.586 | 0.694 | 0.65 | 0.197 | 0.21 | 0.198 | 0.209 | 0.195 | 0.18 | 0.216 | 0.19 | 0.198 | 0.19 | 1.04 | 1.07 | 1.04 | 0.971 | 0.988
SK-MES-1 | 0.405 | 0.282 | 0.304 | 0.291 | 0.269 | 0.941 | 0.698 | 0.48 | 0.366 | 0.326 | 0.291 | 0.233 | 0.241 | 0.252 | 0.204 | 1.08 | 1 | 0.996 | 1.09 | 0.909
HOP-62 | 0.761 | 0.714 | 0.742 | 0.463 | 0.438 | 0.261 | 0.306 | 0.267 | 0.246 | 0.245 | 0.416 | 0.457 | 0.423 | 0.392 | 0.216 | 0.88 | 1 | 1.17 | 0.91 | 0.992
HCC-366 | 0.15 | 0.137 | 0.131 | 0.125 | 0.136 | 0.153 | 0.146 | 0.185 | 0.208 | 0.132 | 0.403 | 0.312 | 0.286 | 0.205 | 0.137 | 0.561 | 0.515 | 0.475 | 0.673 | 0.548
NCI-H2347 | 0.637 | 0.547 | 0.497 | 0.829 | 0.347 | 0.392 | 0.371 | 0.406 | 0.446 | 0.351 | 0.485 | 0.405 | 0.406 | 0.391 | 0.363 | 1.04 | 0.974 | 0.96 | 1.01 | 0.846
LXF-289 | 0.776 | 0.76 | 0.695 | 0.716 | 0.662 | 0.95 | 0.841 | 0.917 | 0.776 | 0.764 | 0.622 | 0.615 | 0.625 | 0.498 | 0.313 | 0.961 | 0.92 | 0.896 | 0.933 | 0.939
NCI-H1793 | 0.392 | 0.324 | 0.245 | 0.336 | 0.252 | 1.07 | 0.774 | 0.553 | 0.234 | 0.412 | 0.309 | 0.274 | 0.218 | 0.213 | 0.195 | 0.758 | 0.76 | 0.827 | 0.932 | 0.719
LU99A | 0.348 | 0.303 | 0.311 | 0.307 | 0.263 | 0.199 | 0.186 | 0.161 | 0.177 | 0.241 | 0.366 | 0.35 | 0.325 | 0.217 | 0.144 | 0.504 | 0.535 | 0.47 | 0.503 | 0.457
PC-14 | 0.636 | 0.644 | 0.645 | 0.655 | 0.616 | 0.115 | 0.138 | 0.144 |  | 0.158 | 0.47 | 0.495 | 0.519 |  | 0.35 | 1.01 | 1.03 | 0.981 | 0.931 | 0.9
NCI-H2085 | 0.438 | 0.424 | 0.431 | 0.45 | 0.381 | 1.09 | 0.768 | 0.938 | 0.806 | 0.903 | 0.49 | 0.477 | 0.483 | 0.506 | 0.52 | 0.898 | 0.939 | 0.873 | 0.876 | 0.864
HCC-78 | 0.224 | 0.208 | 0.224 | 0.173 | 0.184 | 0.906 | 0.844 | 0.884 | 0.881 | 0.898 | 0.513 | 0.476 | 0.458 | 0.394 | 0.463 | 0.399 | 0.429 | 0.466 | 0.527 | 0.514
NCI-H1395 | 0.567 | 0.599 | 0.601 | 0.624 | 0.545 | 0.893 | 0.878 | 0.824 | 0.65 | 0.683 | 0.634 | 0.56 | 0.567 | 0.597 | 0.437 | 1.11 | 1.04 | 1.17 | 1.13 | 0.997
NCI-H2126 | 0.487 | 0.542 | 0.488 | 0.438 | 0.401 | 0.703 | 0.669 | 0.65 | 0.605 | 0.554 | 0.373 | 0.354 | 0.377 | 0.361 | 0.365 | 0.668 | 0.678 | 0.642 | 0.693 | 0.625
H3255 | 0.485 | 0.495 | 0.466 | 0.545 | 0.414 | 0.569 | 0.609 | 0.54 |  | 0.569 | 0.323 | 0.316 | 0.321 |  | 0.331 | 1.02 | 0.908 | 0.913 | 0.97 | 0.871
HCC-15 | 0.728 | 0.684 | 0.8 | 0.359 | 0.689 | 0.232 | 0.232 | 0.231 | 0.235 | 0.23 | 0.71 | 0.825 | 0.672 | 0.537 | 0.27 | 0.846 | 0.863 | 0.889 | 0.944 | 0.806
